System: 616215-338-R-J1-PDC tumor spheroids, viability
Experiment: Anticancer human tumor 616215-338-R-J1-PDC patient-derived colon adenocarcinoma cell line growth inhibition [GQUAD]
Settings: spheroids with HUVEC and MSC; for IC50: curve of first compound; for viability, T/C: stronger effect = lower value; active = viability on the fitted dose curve at most 10% of control; inactive = the rest
How it was run: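 Multi-cell-type spheroids of tumor cells with HUVEC and mesenchymal stem cells, treated with drug combinations. Concentrations descend in half-log steps from near clinical Cmax, or from 10 microM where Cmax is unknown; viability read-out.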

[1] = second compound 0.0316 µM, first compound 0.0316 µM
[2] = second compound 0.0316 µM, first compound 0.1 µM
[3] = second compound 0.0316 µM, first compound 0.316 µM
[4] = second compound 0.0316 µM, first compound 1 µM
[5] = second compound 0.0316 µM, first compound 3.16 µM
[6] = second compound 0.0316 µM, first compound 10 µM
[7] = second compound 0.1 µM, first compound 0.0316 µM
[8] = second compound 0.1 µM, first compound 0.1 µM
[9] = second compound 0.1 µM, first compound 0.316 µM
[10] = second compound 0.1 µM, first compound 1 µM
[11] = second compound 0.1 µM, first compound 3.16 µM
[12] = second compound 0.1 µM, first compound 10 µM
[13] = second compound 0.316 µM, first compound 0.0316 µM
[14] = second compound 0.316 µM, first compound 0.1 µM
[15] = second compound 0.316 µM, first compound 0.316 µM
[16] = second compound 0.316 µM, first compound 1 µM
[17] = second compound 0.316 µM, first compound 3.16 µM
[18] = second compound 0.316 µM, first compound 10 µM
[19] = second compound 1 µM, first compound 0.0316 µM
[20] = second compound 1 µM, first compound 0.1 µM
[21] = second compound 1 µM, first compound 0.316 µM
[22] = second compound 1 µM, first compound 1 µM
[23] = second compound 1 µM, first compound 3.16 µM
[24] = second compound 1 µM, first compound 10 µM
[25] = second compound 3.16 µM, first compound 0.0316 µM
[26] = second compound 3.16 µM, first compound 0.1 µM
[27] = second compound 3.16 µM, first compound 0.316 µM
[28] = second compound 3.16 µM, first compound 1 µM
[29] = second compound 3.16 µM, first compound 3.16 µM
[30] = second compound 3.16 µM, first compound 10 µM
[31] = second compound 10 µM, first compound 0.0316 µM
[32] = second compound 10 µM, first compound 0.1 µM
[33] = second compound 10 µM, first compound 0.316 µM
[34] = second compound 10 µM, first compound 1 µM
[35] = second compound 10 µM, first compound 3.16 µM
[36] = second compound 10 µM, first compound 10 µM
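Also: spheroids exposed to agents for 7 days before readout.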
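For viability, T/C in this document: percent viability relative to DMSO vehicle control wells taken as 100%.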

O=C(c1cc(Cc2n[nH]c(=O)c3ccccc23)ccc1F)N1CCN(C(=O)C2CC2)CC1 + Cc1cnc(CNC(=O)c2c(=O)c3ccc(N4CCCN(C)CC4)nc3n3c2sc2ccccc23)cn1
< 0.0316 µM: IC50 (second compound 0.316 µM) | IC50 (second compound 1 µM) | IC50 (second compound 3.16 µM) | IC50 (second compound 10 µM)
> 10 µM: IC50 (second compound 0.0316 µM) | IC50 (second compound 0.1 µM)
inactive: viability, T/C [1] 97.3% | viability, T/C [2] 103% | viability, T/C [3] 107% | viability, T/C [4] 87.9% | viability, T/C [5] 84.3% | viability, T/C [6] 68.7% | viability, T/C [7] 68.5% | viability, T/C [8] 69.3% | viability, T/C [9] 74.4% | viability, T/C [10] 64.3% | viability, T/C [11] 53.9% | viability, T/C [12] 51.5% | viability, T/C [13] 43.6% | viability, T/C [14] 39.4% | viability, T/C [15] 46.4% | viability, T/C [16] 52.2% | viability, T/C [17] 36.1% | viability, T/C [18] 35.1% | viability, T/C [19] 42.8% | viability, T/C [20] 28.7% | viability, T/C [21] 30.4% | viability, T/C [22] 54.8% | viability, T/C [23] 38.5% | viability, T/C [24] 26.7% | viability, T/C [25] 28.1% | viability, T/C [26] 26.6% | viability, T/C [27] 23.2% | viability, T/C [28] 28.7% | viability, T/C [29] 41.4% | viability, T/C [30] 30.3% | viability, T/C [31] 36.6% | viability, T/C [32] 28.7% | viability, T/C [33] 25.2% | viability, T/C [34] 22.7% | viability, T/C [35] 44.1% | viability, T/C [36] 24.3%

CC(C)(O)C1CCC(Nc2ccc3ncc(-c4cccc(C(F)(F)F)c4)n3n2)CC1 (stereo not given) + Cc1[nH]c2ccc(F)cc2c1-c1nc2c3cccnc3c3ncccc3c2[nH]1
active: viability, T/C [5] 0.5% | viability, T/C [6] 1.09% | viability, T/C [11] 0.24% | viability, T/C [12] 2.5% | viability, T/C [17] 2.23% | viability, T/C [18] 1.14% | viability, T/C [23] 0.55% | viability, T/C [24] 1.33% | viability, T/C [29] 0.45% | viability, T/C [30] 0.48% | viability, T/C [34] 8.43% | viability, T/C [35] 0.77% | viability, T/C [36] 0.56%
0.644 µM: IC50 (second compound 1 µM)
0.596 µM: IC50 (second compound 0.1 µM)
0.61 µM: IC50 (second compound 0.0316 µM)
0.584 µM: IC50 (second compound 3.16 µM)
0.591 µM: IC50 (second compound 0.316 µM)
inactive: viability, T/C [1] 99.1% | viability, T/C [2] 103% | viability, T/C [3] 103% | viability, T/C [4] 11.2% | viability, T/C [7] 93.7% | viability, T/C [8] 109% | viability, T/C [9] 94.3% | viability, T/C [10] 13.8% | viability, T/C [13] 92% | viability, T/C [14] 97% | viability, T/C [15] 97.6% | viability, T/C [16] 11.7% | viability, T/C [19] 97% | viability, T/C [20] 89.9% | viability, T/C [21] 91.6% | viability, T/C [22] 24.3% | viability, T/C [25] 98.8% | viability, T/C [26] 103% | viability, T/C [27] 95.2% | viability, T/C [28] 10.4% | viability, T/C [31] 90.1% | viability, T/C [32] 94.4% | viability, T/C [33] 93.2%
0.566 µM: IC50 (second compound 10 µM)

CCCS(=O)(=O)Nc1ccc(F)c(C(=O)c2c[nH]c3ncc(-c4ccc(Cl)cc4)cc23)c1F + Cc1[nH]c2ccc(F)cc2c1-c1nc2c3cccnc3c3ncccc3c2[nH]1
inactive: viability, T/C [1] 105% | viability, T/C [2] 96.7% | viability, T/C [3] 93.8% | viability, T/C [4] 99.1% | viability, T/C [5] 94.9% | viability, T/C [7] 93.6% | viability, T/C [8] 107% | viability, T/C [9] 102% | viability, T/C [10] 102% | viability, T/C [11] 87.6% | viability, T/C [13] 104% | viability, T/C [14] 98.7% | viability, T/C [15] 99% | viability, T/C [16] 98% | viability, T/C [17] 96.5% | viability, T/C [19] 109% | viability, T/C [20] 106% | viability, T/C [21] 89% | viability, T/C [22] 96.3% | viability, T/C [23] 91.5% | viability, T/C [25] 96.7% | viability, T/C [26] 91.4% | viability, T/C [27] 101% | viability, T/C [28] 95.2% | viability, T/C [29] 86.6% | viability, T/C [31] 101% | viability, T/C [32] 92.3% | viability, T/C [33] 101% | viability, T/C [34] 93.5% | viability, T/C [35] 76.8%
5.54 µM: IC50 (second compound 0.0316 µM)
5.28 µM: IC50 (second compound 0.1 µM)
5.42 µM: IC50 (second compound 1 µM)
active: viability, T/C [6] 2.78% | viability, T/C [12] 3.08% | viability, T/C [18] 3.41% | viability, T/C [24] 2.83% | viability, T/C [30] 1.44% | viability, T/C [36] 1.37%
4.76 µM: IC50 (second compound 10 µM)
5.19 µM: IC50 (second compound 3.16 µM)
5.62 µM: IC50 (second compound 0.316 µM)

C=CCn1c(=O)c2cnc(Nc3ccc(N4CCN(C)CC4)cc3)nc2n1-c1cccc(C(C)(C)O)n1 + CN(C)c1ccc(Nc2c3ccc(NC(=O)CCN4CCCC4)cc3nc3cc(NC(=O)CCN4CCCC4)ccc23)cc1
active: viability, T/C [35] 11.9% | viability, T/C [36] 3.42%
inactive: viability, T/C [1] 108% | viability, T/C [2] 100% | viability, T/C [3] 50.6% | viability, T/C [4] 23% | viability, T/C [5] 12.6% | viability, T/C [6] 11.5% | viability, T/C [7] 107% | viability, T/C [8] 109% | viability, T/C [9] 46.9% | viability, T/C [10] 23.5% | viability, T/C [11] 13.4% | viability, T/C [12] 12% | viability, T/C [13] 105% | viability, T/C [14] 107% | viability, T/C [15] 52.2% | viability, T/C [16] 23.3% | viability, T/C [17] 13.1% | viability, T/C [18] 14.7% | viability, T/C [19] 98.2% | viability, T/C [20] 99.5% | viability, T/C [21] 44.1% | viability, T/C [22] 24.4% | viability, T/C [23] 13.7% | viability, T/C [24] 14.3% | viability, T/C [25] 100% | viability, T/C [26] 96.9% | viability, T/C [27] 46.4% | viability, T/C [28] 26% | viability, T/C [29] 14.5% | viability, T/C [30] 10.6% | viability, T/C [31] 87.9% | viability, T/C [32] 90.3% | viability, T/C [33] 49% | viability, T/C [34] 19.9%
0.344 µM: IC50 (second compound 0.0316 µM)
0.3 µM: IC50 (second compound 0.1 µM)
0.308 µM: IC50 (second compound 3.16 µM)
0.281 µM: IC50 (second compound 1 µM)
0.347 µM: IC50 (second compound 0.316 µM)
0.335 µM: IC50 (second compound 10 µM)

CC[C@@]1(O)C(=O)OCc2c1cc1n(c2=O)Cc2cc3c(CN(C)C)c(O)ccc3nc2-1 + Cc1[nH]c2ccc(F)cc2c1-c1nc2c3cccnc3c3ncccc3c2[nH]1
inactive: viability, T/C (second compound 0.0316 µM, first compound 0.000999 µM) 102% | viability, T/C (second compound 0.0316 µM, first compound 0.00316 µM) 99.7% | viability, T/C (second compound 0.0316 µM, first compound 0.00999 µM) 103% | viability, T/C [1] 99.4% | viability, T/C (second compound 0.0316 µM, first compound 0.0999 µM) 90.5% | viability, T/C [3] 48.2% | viability, T/C (second compound 0.1 µM, first compound 0.000999 µM) 105% | viability, T/C (second compound 0.1 µM, first compound 0.00316 µM) 111% | viability, T/C (second compound 0.1 µM, first compound 0.00999 µM) 97% | viability, T/C [7] 101% | viability, T/C (second compound 0.1 µM, first compound 0.0999 µM) 89.5% | viability, T/C [9] 55.2% | viability, T/C (second compound 0.316 µM, first compound 0.000999 µM) 88.9% | viability, T/C (second compound 0.316 µM, first compound 0.00316 µM) 109% | viability, T/C (second compound 0.316 µM, first compound 0.00999 µM) 100% | viability, T/C [13] 101% | viability, T/C (second compound 0.316 µM, first compound 0.0999 µM) 79.8% | viability, T/C [15] 38.9% | viability, T/C (second compound 1 µM, first compound 0.000999 µM) 93% | viability, T/C (second compound 1 µM, first compound 0.00316 µM) 108% | viability, T/C (second compound 1 µM, first compound 0.00999 µM) 95.3% | viability, T/C [19] 97.7% | viability, T/C (second compound 1 µM, first compound 0.0999 µM) 90.9% | viability, T/C [21] 51.1% | viability, T/C (second compound 3.16 µM, first compound 0.000999 µM) 88.8% | viability, T/C (second compound 3.16 µM, first compound 0.00316 µM) 89.9% | viability, T/C (second compound 3.16 µM, first compound 0.00999 µM) 92% | viability, T/C [25] 95.5% | viability, T/C (second compound 3.16 µM, first compound 0.0999 µM) 87% | viability, T/C [27] 42.6% | viability, T/C (second compound 10 µM, first compound 0.000999 µM) 98.2% | viability, T/C (second compound 10 µM, first compound 0.00316 µM) 110% | viability, T/C (second compound 10 µM, first compound 0.00999 µM) 87.8% | viability, T/C [31] 94.5% | viability, T/C (second compound 10 µM, first compound 0.0999 µM) 71.4% | viability, T/C [33] 31.4%
0.186 µM: IC50 (second compound 10 µM)
0.302 µM: IC50 (second compound 0.0316 µM)
0.232 µM: IC50 (second compound 0.316 µM)
0.262 µM: IC50 (second compound 3.16 µM)
> 0.316 µM: IC50 (second compound 0.1 µM) | IC50 (second compound 1 µM)
